Experimental data published in patent US9839642B2, “Beta-tetrazolyl-propionic acids as metallo-beta-lactamase inhibitors” (priority 2014, dated 2017).
Where two headings read alike, the source gives them in different places.

Tests used:
[1] = tested on: Serratia marcescens expressing IMP-1 (CL5741); experiment: Antibiotic potentiation activity: synergistic concentration (MITC95) with imipenem, growth by OD600; type: cell-based
How it was run: (§1)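 MITC95 = lowest inhibitor concentration giving 95% growth inhibition, read by absorbance after 22–24 h at 35° C. Compound range 200 μM to 0.195 μM, imipenem fixed at 1 or 4 μg/ml, bacteria in 1.1×CAMHB from saline suspension diluted 1:100.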

[2] = tested on: Escherichia coli expressing NDM-1 (CLB30016); experiment: as above; type: cell-based
How it was run: as §1

[3] = tested on: Klebsiella pneumoniae expressing VIM-1 (IHMA599644); experiment: as above; type: cell-based
How it was run: as §1

[4] = target: IMP-1 (Serratia marcescens, UniProt P52699); experiment: Enzyme activity: determination of IC50, fluorescence assay with CCF2-FA substrate; type: biochemical; conditions: CCF2-FA 1.25 μM, 2 hours at 25° C., read-out: IMP1 IC50
Chain of IMP-1 (P52699 19-246, looked up, species assumed): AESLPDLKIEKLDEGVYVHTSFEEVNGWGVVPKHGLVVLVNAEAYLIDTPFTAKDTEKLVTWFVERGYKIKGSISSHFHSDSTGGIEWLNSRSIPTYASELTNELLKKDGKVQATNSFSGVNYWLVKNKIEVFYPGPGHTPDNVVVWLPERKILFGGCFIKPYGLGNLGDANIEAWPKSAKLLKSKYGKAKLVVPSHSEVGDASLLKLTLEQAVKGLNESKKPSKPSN
How it was run: (§2)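 In pH 7 phosphate buffer (100 mM) with 10 μM ZnSO4 and 0.005% Tween-20, CCF2-FA substrate (1.25 μM final) was hydrolysed for 2 h at 25 °C by NDM-1, IMP-1 or VIM-1 at 1, 2 or 30 pM in the presence of inhibitor at 20–0.00063 μM. Emission 460 nm/excitation 405 nm; 4-parameter curve fit gave IC50.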

[5] = target: NDM-1 (Klebsiella pneumoniae, UniProt C7C422); experiment: as above; type: biochemical; conditions: CCF2-FA 1.25 μM, 2 hours at 25° C., read-out: NDM1 IC50
Chain of NDM-1 (C7C422 29-270, looked up, species assumed): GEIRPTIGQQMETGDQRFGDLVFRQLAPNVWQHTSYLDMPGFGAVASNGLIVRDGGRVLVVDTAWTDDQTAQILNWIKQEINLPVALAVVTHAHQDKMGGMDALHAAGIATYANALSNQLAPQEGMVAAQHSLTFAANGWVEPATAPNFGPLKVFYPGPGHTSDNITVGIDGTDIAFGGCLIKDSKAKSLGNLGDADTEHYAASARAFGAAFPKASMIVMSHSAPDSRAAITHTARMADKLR
How it was run: as §2

[6] = target: VIM-1 (Pseudomonas aeruginosa, UniProt A0A0F7KYQ8); experiment: as above; type: biochemical; conditions: CCF2-FA 1.25 μM, 2 hours at 25° C., read-out: VIM1 IC50
How it was run: as §2

[7] = S. marcescens CL5741 (IMP-1), 95% inhibition of growth
[8] = E. coli CLB30016 (NDM-1), 95% inhibition of growth
[9] = K. pneumoniae IHMA599644 (VIM-1), 95% inhibition of growth
[10] = 95% inhibition of bacterial growth, strain CL5741
[11] = 95% inhibition of bacterial growth, strain CLB30016
[12] = 95% inhibition of bacterial growth, strain IHMA599644

## CC(C)C[C@H](C(=O)O)[C@H](Cc1ccc(Oc2ccccc2)nc1)c1nn[nH]n1 [Example 381, (2S)-4-methyl-2-[(1S)-2-(6-phenoxypyridin-3-yl)-1-(2H-tetrazol-5-yl)ethyl]pentanoic acid]
[1]; [7]
  IMP1 SM5741 MITC95: 4.7 µM
[2]; [8]
  NDM1 EC30016 MITC95: 9.4 µM
[3]; [9]
  VIM1 KP599644 MITC95: 75 µM
[4]; IMP-1 enzyme 2 pM
  IC50: 86 nM
[5]; NDM-1 enzyme 1 pM
  IC50: 24 nM
[6]; VIM-1 enzyme 30 pM
  IC50: 4.1 nM

## CC(C)C[C@H](C(=O)O)[C@H](Cc1ccc(N2CC(CO)(CO)C2)nc1)c1nnn[nH]1 [Example 330, (2S)-2-[(1S)-2-{6-[3,3-bis(hydroxymethyl)azetidin-1-yl]pyridin-3-yl}-1-(1H-tetrazol-5-yl)ethyl]-4-methylpentanoic acid]
[1]; [7]
  IMP1 SM5741 MITC95: 25 µM
[2]; [8]
  NDM1 EC30016 MITC95: 16 µM
[3]; [9]
  VIM1 KP599644 MITC95: 100 µM
[4]; IMP-1 enzyme 2 pM
  IC50: 400 nM
[5]; NDM-1 enzyme 1 pM
  IC50: 100 nM
[6]; VIM-1 enzyme 30 pM
  IC50: 22 nM

## CC(C)C[C@H](C(=O)O)[C@H](Cc1ccc(N2CCCC(CO)C2)nc1)c1nnn[nH]1 (stereo partly drawn) [Example 309, (2S)-2-[(1S)-2-{6-[3-(hydroxymethyl)piperidin-1-yl]pyridin-3-yl}-1-(1H-tetrazol-5-yl)ethyl]-4-methylpentanoic acid]
[1]; [7]
  IMP1 SM5741 MITC95: 6.2 µM
[2]; [8]
  NDM1 EC30016 MITC95: 6.2 µM
[3]; [9]
  VIM1 KP599644 MITC95: 75 µM
[4]; IMP-1 enzyme 2 pM
  IC50: 150 nM
[5]; NDM-1 enzyme 1 pM
  IC50: 62 nM
[6]; VIM-1 enzyme 30 pM
  IC50: 24 nM

## CC(C)[C@H](C(=O)O)[C@H](Cc1ccc(NCCN)nc1)c1nnn[nH]1 [Example 140, (2S,3S)-4-(6-((2-aminoethyl)amino)pyridin-3-yl)-2-isopropyl-3-(1H-tetrazol-5-yl)butanoic acid]
[1]; [10]
  IMP1 SM5741 MITC95: 75 µM
[2]; [11]
  NDM1 EC30016 MITC95: 1.6 µM
[3]; [12]
  VIM1 KP599644 MITC95: 12.5 µM
[4]; enzyme 2 pM
  IC50: > 20000 nM
[5]; enzyme 1 pM
  IC50: 320 nM
[6]; enzyme 30 pM
  IC50: 8.7 nM

## O=C(O)[C@@H](C1CCCC1)[C@H](Cc1ccc(C2CCNC2)cc1)c1nnn[nH]1 (stereo partly drawn) [Example 79, 3-(4-((2S,3S)-3-carboxy-3-cyclopentyl-2-(1H-tetrazol-5-yl)propyl)phenyl)pyrrolidin-1-ium]
[1]; [10]
  IMP1 SM5741 MITC95: 4.7 µM
[2]; [11]
  NDM1 EC30016 MITC95: 3.1 µM
[3]; [12]
  VIM1 KP599644 MITC95: 6.2 µM
[4]; enzyme 2 pM
  IC50: 190 nM
[5]; enzyme 1 pM
  IC50: 24 nM
[6]; enzyme 30 pM
  IC50: 2.3 nM

## CCC[C@H](C(=O)O)[C@H](Cc1ccc(C#N)cn1)c1nnn[nH]1 [Example 84, (2S)-2-[(1S)-2-(5-cyanopyridin-2-yl)-1-(1H-tetrazol-5-yl)ethyl]pentanoic acid]
[1]; [10]
  IMP1 SM5741 MITC95: >200 µM
[2]; [11]
  NDM1 EC30016 MITC95: 18.8 µM
[3]; [12]
  VIM1 KP599644 MITC95: 50 µM
[4]; enzyme 2 pM
  IC50: > 20000 nM
[5]; enzyme 1 pM
  IC50: 1200 nM
[6]; enzyme 30 pM
  IC50: 47 nM

## CCC[C@H](C(=O)O)[C@H](Cc1ccc2c(c1)CNC2)c1nnn[nH]1 [Example 437, (S)-2-((S)-2-(isoindolin-5-yl)-1-(1H-tetrazol-5-yl)ethyl)pentanoic acid compound with 2,2,2-trifluoroacetic acid (1:1)]
[1]; [7]
  IMP1 SM5741 MITC95: 150 µM
[2]; [8]
  NDM1 EC30016 MITC95: 4.688 µM
[3]; [9]
  VIM1 KP599644 MITC95: 6.25 µM
[4]; IMP-1 enzyme 2 pM
  IC50: 11400 nM
[5]; NDM-1 enzyme 1 pM
  IC50: 533 nM
[6]; VIM-1 enzyme 30 pM
  IC50: 1.73 nM

## CCC[C@H](C(=O)O)[C@H](Cc1ccc(C2CCN(C(=N)N)C2)cc1)c1nnn[nH]1 (stereo partly drawn) [Example 414, (2S)-2-((1S)-2-(4-(1-carbamimidoylpyrrolidin-3-yl)phenyl)-1-(1H-tetrazol-5-yl)ethyl)pentanoic acid]
[1]; [7]
  IMP1 SM5741 MITC95: 9.375 µM
[2]; [8]
  NDM1 EC30016 MITC95: 4.688 µM
[3]; [9]
  VIM1 KP599644 MITC95: 12.5 µM
[4]; IMP-1 enzyme 2 pM
  IC50: 214 nM
[5]; NDM-1 enzyme 1 pM
  IC50: 69 nM
[6]; VIM-1 enzyme 30 pM
  IC50: 1.52 nM

## CCC[C@H](C(=O)O)[C@H](Cc1ccc(C2CCNCC2)cc1)c1nnn[nH]1 [Example 412, (S)-2-((S)-2-(4-(piperidin-4-yl)phenyl)-1-(1H-tetrazol-5-yl)ethyl)pentanoic acid]
[1]; [7]
  IMP1 SM5741 MITC95: 9.375 µM
[2]; [8]
  NDM1 EC30016 MITC95: 9.375 µM
[3]; [9]
  VIM1 KP599644 MITC95: 12.5 µM
[4]; IMP-1 enzyme 2 pM
  IC50: 275 nM
[5]; NDM-1 enzyme 1 pM
  IC50: 71.4 nM
[6]; VIM-1 enzyme 30 pM
  IC50: 4.49 nM
